This assay in a line: Antioxidant activity, DPPH spectrophotometric method. The settings on record: DPPH, absorbance at 515 nm. Here is the method:
The antioxidant activity assays were carried out according to the 2,2-diphenyl-1-picrylhydrazyl (DPPH) spectrophotometric method.[34] Initially, to assess whether the compounds had antioxidant activity and to define the time required by each antioxidant to reach the steady state, the reduction in absorbance over time at 515 nm of a solution of DPPH mixed with the tested compound was recorded until reaching the plateau. […] The value of EC50 can be extrapolated by plotting the percentage of residual DPPH at the steady state as a function of the molar ratio of the antioxidant to initial DPPH.
2,2-Diphenyl-1-picrylhydrazyl (DPPH), MeOH, and ascorbic acid, used as the reference standard, were purchased from Sigma-Aldrich. Micropipettes Labmate (BRAND Dig. 10–100 μL; Dig. 100–1000 μL) and Transferpette (HIGH TECH LAB LM200: 20–200 μL; LM5000: 1000–5000 μL) were used to collect the samples. The assays were carried out by a double beam UV–vis Lambda 40 Perkin Elmer spectrophotometer using optical polystyrene cuvettes (10 × 10 × 45 mm, 340–800 nm optical transparency); each measure was repeated at least in triplicate. For data processing, UV-WIN Lab version 2.0 (Perkin Elmer Corporation) was used. The antioxidant activity of the tested compounds was evaluated by the DPPH method[34] based on the ability of antioxidant compounds to react with the stable radical DPPH, which has a maximum absorption at about 515 nm. Thus, by measuring the decrease in absorbance over time of DPPH solutions to which increasing amounts of the tested compound are added, the antioxidant activity of the compound can be determined.
[…]. To 2.90 mL of MeOH, 60 μL of a DPPH solution in MeOH (∼1.2 mM) and 40 μL of an antioxidant solution in MeOH (4.5 mM) were added to have in the cuvette concentrations of DPPH equal to about 25 μM and of antioxidant equal to 60 μM. The exact DPPH concentration was calculated through the Lambert–Beer relation, known the extinction coefficient of DPPH at 515 nm, equal to 1.25 × 10^4.[34] The absorbance was recorded until the plateau was reached.
. To obtain the initial DPPH concentration, 2.94 mL of MeOH and 60 μL of the DPPH solution in MeOH (∼1.2 mM) were placed in a polystyrene cuvette and the absorbance was recorded at 515 nm. The exact initial DPPH concentration was calculated through the Lambert–Beer relation. For subsequent measurements, the cuvettes were set up by introducing the opportune volume of MeOH to reach a total volume of 3 mL, 60 μL of the DPPH solution in MeOH (∼1.2 mM, to have a final concentration of ∼25 μM), and the appropriate volumes of the antioxidant stock solution in MeOH to have final concentrations between 1.5 and 12 μM for 20 and between 5 and 60 μM for 18 and 30; the absorbance was recorded at 515 nm at the plateau and then after 1 min for compound 20 and after 90 min for compounds 18 and 30. Each measure was repeated four times. With absorbance data, the percentages of residual DPPH at steady state were obtained using the following equation: [drawing 3] where Ac is the average of absorbance in the presence of antioxidant at plateau and A0 is the average of the initial absorbance of DPPH.
The same procedure was performed using ascorbic acid as the antioxidant at cuvette concentrations between 1.5 and 18 μM, recording the absorbance at 515 nm after 2 min from the preparation of the cuvettes.

For the compound `CC(C)(C)OC(=O)NCCCCCCNc1ncccn1` [Compound 2, tert-Butyl {6-[(Pyrimidin-2-yl)amino]hexyl}carbamate], the “reaction time (time for reaching the plateau)” value is 1 min.

For `O=C1O[C@H]([C@@H](O)CO)C(O)=C1O` [ascorbic acid, reference compound], the “reaction time (time for reaching the plateau)” value was 2 min.

The record behind these values is PMC8569681, “New Pyrimidine and Pyridine Derivatives as Multitarget Cholinesterase Inhibitors: Design, Synthesis, and In Vitro and In Cellulo Evaluation” (ACS Chemical Neuroscience, 2021).
